From patent US20070259856A1, “Method for Activating Trpv4 Channel Receptors by Agonists” (priority 2004, published 2007)
Values joined by “and” are separate entries in the source; they are usually repeats but may differ in a detail not shown here. Equal entries are not always repeated. Where two headings read alike, the source gives them in different places. Blank lines part the entries; values can stand above or below the compound they belong to.

Legend:
[1] = test system: wild type HEK293 cells; assay: Intracellular calcium (FLIPR) in wild type HEK293 cells; type: cell-based; parameters: key to pEC50 wild type: IA = inactive; details: for pEC50 wild type: intracellular calcium, mean ± s.e.mean, n = 3-5
Method: (§1) TRPV4 channel receptor cDNA was inserted into the expression vector pcDNA3.1 V5-His (Invitrogen, Carlsbad, Calif.). Wildtype HEK293 cells, or HEK293 cells transfected with the human TRPV4 channel receptor: pcDNA3.1 V5-His construct, or mock transfected cells, or bovine chondrocytes, were seeded into 96-well microtitre plates at 25,000 cells/well and cultured overnight. The cells were then incubated with 4 μM Fluo-3 (Fluo-3: Molecular Probes (Eugene, Oreg.)) for 2 hours at room temperature in the dark. Dye loaded cells were washed 4× with Tyrodes buffer: (NaCl, 145 mM; KCl, 2.5 mM; Hepes, 10 mM; Glucose, 10 mM; MgCl2, 1.2 mM; CaCl2, 1.5 mM), which also contained 0.2% BSA but not probenecid. Agonists and antagonists were also prepared in Tyrodes buffer. Cells were preincubated for 30 minutes with antagonist or buffer. Agonist addition and measurement of cytoplasmic calcium concentration was performed in the FLIPR (Smart, et al., (2000) Br. J. Pharmacol. 129, 227-230).

[2] = test system: cells transfected with empty vector; assay: Intracellular calcium (FLIPR) in HEK293 cells transfected with empty vector; type: cell-based; parameters: key to pEC50 empty vector: IA = inactive; details: for pEC50 empty vector: intracellular calcium, mean ± s.e.mean, n = 3-5
Method: as §1

[3] = target: TRPVR1 (Homo sapiens, UniProt Q8NER1); type: cell-based; parameters: key to pEC50 TRPVR1: IA = inactive; details: for pEC50 TRPVR1: intracellular calcium, mean ± s.e.mean, n = 3-5
[4] = target: T1, TRPV4 channel receptor (Homo sapiens, UniProt Q9HBA0); assay: Intracellular calcium (FLIPR, Fluo-3) in HEK293 cells transfected with human TRPV4 channel receptor; type: cell-based; parameters: V5-His (from the vector's name only); expressed in transfected cells; host or cells: HEK293; key to pEC50 TRPVR4: IA = inactive; details: for pEC50 TRPVR4: intracellular calcium, mean ± s.e.mean, n = 3-5
Method: as §1

[5] = target: T2, TRPV4 channel receptor (Bos taurus, UniProt A0A8F4X677); assay: Ca2+ influx in bovine articular chondrocytes (FlexStation); type: cell-based
T2 construct: endogenous in cells; host or cells: bovine articular chondrocytes

[6] = test system: aggrecanase; assay: IL-1 induced aggrecanase production, chondrocyte-based aggrecanase peptide cleavage assay; type: cell-based, bovine
Excerpt: Aggrecanases (ADAMTSs), in conjunction with MMPs, degrade aggrecan, one of the major matrix components in articular cartilage. […] 2003; 48(1): 119-133].

[7] = target: T1, TRPV4 channel receptor; assay: FLIPR assay; type: cell-based
[8] = target: TRPV4 channel receptor (Rattus norvegicus, UniProt Q9ERZ8); assay: Ca2+ influx in rat articular chondrocytes (FlexStation); details: for EC50: RAC EC50, rat articular chondrocytes; for EC50 / RAC % eff: N = 2; for RAC % eff: rat articular chondrocytes
[9] = target: T1, TRPV4 channel receptor; assay: Ca2+ influx in human articular chondrocytes (FlexStation); details: for HAC % eff: human articular chondrocytes
[10] = test system: bovine articular cartilage explants; assay: IL-1 induced collagen degradation (hydroxyproline) in bovine articular cartilage explants; type: cell-based
Method: IL-1 stimulates collagen degradation in bovine articular cartilage explants after extended (−2-3 weeks) exposure to IL-1. Collagen breakdown was evaluated by measuring the levels of hydroxyproline, a major component of hydrolyzed collagen fibrils, using a colorimetric assay that is understood in the art. Bovine articular cartilage was stimulated with IL-1 for 18 days, in the absence or presence of Formula Ib or Formula IId (both at 1 uM). Media was removed and replaced every 2-4 days with fresh IL-1 and compound through day 18. As has been shown previously, aggrecan degradation precedes collagen breakdown in IL-1-stimulated bovine cartilage explants. Once aggrecan depletion had been achieved by day 10, media were analyzed for collagen breakdown using the hydroxyproline assay.

[11] = test system: bovine articular cartilage explants; assay: IL-1 induced aggrecan degradation (GAG release, DMMB) in bovine articular cartilage explants; type: cell-based; details: for IC50: IL-1-stimulated bovine cartilage
Excerpt: Articular cartilage explants isolated from newborn calves at slaughter were placed in culture, and aggrecan degradation was initiated through stimulation with IL-1. Since aggrecan degradation in this model is believed to be mediated by aggrecanase, TRPV4 channel receptor agonists that are active in the chondrocyte-based aggrecanase peptide assay (Example 11) may also be effective inhibitors in the cartilage explant assay, presumably by blocking aggrecanase production in these tissues.
At the end of the culture period, conditioned media were assayed for glycosaminoglycan (GAG) levels by colorimetric (DMMB) assay as a measure of aggrecan degradation. In bovine explants, IL-1 induced a profound increase in the amount of GAG released into the media during the 3 day culture. When cartilage was treated with IL-1 in combination with Formula IIc, there was a concentration-dependent reduction in GAG release as shown in Table 5.

[12] = target: T3, TRPV4 channel receptor endogenously expressed by chondrocytes (Bos taurus, UniProt A0A8F4X677); assay: Intracellular calcium (FLIPR) in bovine articular chondrocytes; type: cell-based
T3 construct: endogenous in cells; host or cells: bovine articular chondrocytes
Method: as §1
The response was dependent upon extracellular calcium ions and was blocked by the channel blocker, ruthenium red.

[13] = test system: TRPV4 channel receptors; assay: Activation of TRPV4 channel receptors in cartilage explants; type: cell-based, human, rat, rabbit, mouse, canine, monkey, or bovine; details: compared with chondrocytes extracted from a cartilage matrix
[14] = test system: human cartilage explants; assay: Aggrecan degradation (GAG, DMMB) in human cartilage explants; type: cell-based; details: Homo sapiens; estimated; 3-point concentration response
Method: Because the progression of aggrecan degradation in response to IL-1 in human cartilage is slower than in bovine cartilage, culture media was removed and replaced with fresh treatments every 2-3 days for approximately 3 weeks. For each timepoint, GAG levels were measured by DMMB assay, and cumulative data released over the entire 3 week culture period was calculated.
The data represents cumulative aggrecan degradation after 21 days in culture. […] In addition, Formula IId caused a concentration-dependent reduction of IL-1-induced aggrecan degradation. […] The estimated IC50's shown in Table 7 are very similar to those IC50's calculated from IL-1-stimulated bovine cartilage.

[15] = bovine articular chondrocytes, read-out: BAC EC50
[16] = HAC EC50, human articular chondrocytes, N = 2
[17] = bovine chondrocytes, read-out: Ca Influx - FLEX (bovine) EC50
[18] = Ca Influx - FLEX (human) EC50, human chondrocytes

TRPVR1, sequence (Q8NER1 whole entry): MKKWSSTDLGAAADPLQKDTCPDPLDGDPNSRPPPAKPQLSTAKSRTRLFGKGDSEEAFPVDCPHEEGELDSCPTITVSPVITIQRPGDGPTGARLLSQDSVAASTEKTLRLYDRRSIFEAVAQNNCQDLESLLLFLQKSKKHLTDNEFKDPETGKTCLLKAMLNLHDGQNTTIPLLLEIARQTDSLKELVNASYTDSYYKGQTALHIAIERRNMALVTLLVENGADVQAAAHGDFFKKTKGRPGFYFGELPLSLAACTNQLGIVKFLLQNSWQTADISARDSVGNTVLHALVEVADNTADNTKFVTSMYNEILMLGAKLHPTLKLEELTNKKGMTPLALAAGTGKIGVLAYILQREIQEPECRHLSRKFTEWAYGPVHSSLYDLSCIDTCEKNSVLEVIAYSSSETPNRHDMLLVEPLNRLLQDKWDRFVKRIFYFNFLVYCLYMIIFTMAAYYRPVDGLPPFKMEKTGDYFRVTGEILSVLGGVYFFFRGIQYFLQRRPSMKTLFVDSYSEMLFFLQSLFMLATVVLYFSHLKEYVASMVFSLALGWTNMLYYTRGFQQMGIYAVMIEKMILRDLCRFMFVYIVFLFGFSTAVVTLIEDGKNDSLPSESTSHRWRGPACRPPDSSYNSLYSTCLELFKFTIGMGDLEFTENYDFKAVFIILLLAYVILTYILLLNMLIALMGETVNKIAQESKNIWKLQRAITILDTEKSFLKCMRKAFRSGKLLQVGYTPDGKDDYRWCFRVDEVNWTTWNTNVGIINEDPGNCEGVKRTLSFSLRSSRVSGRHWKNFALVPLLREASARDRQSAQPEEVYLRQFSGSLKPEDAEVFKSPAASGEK
TRPV4 channel receptor (Rattus norvegicus, UniProt Q9ERZ8), sequence (Q9ERZ8 whole entry): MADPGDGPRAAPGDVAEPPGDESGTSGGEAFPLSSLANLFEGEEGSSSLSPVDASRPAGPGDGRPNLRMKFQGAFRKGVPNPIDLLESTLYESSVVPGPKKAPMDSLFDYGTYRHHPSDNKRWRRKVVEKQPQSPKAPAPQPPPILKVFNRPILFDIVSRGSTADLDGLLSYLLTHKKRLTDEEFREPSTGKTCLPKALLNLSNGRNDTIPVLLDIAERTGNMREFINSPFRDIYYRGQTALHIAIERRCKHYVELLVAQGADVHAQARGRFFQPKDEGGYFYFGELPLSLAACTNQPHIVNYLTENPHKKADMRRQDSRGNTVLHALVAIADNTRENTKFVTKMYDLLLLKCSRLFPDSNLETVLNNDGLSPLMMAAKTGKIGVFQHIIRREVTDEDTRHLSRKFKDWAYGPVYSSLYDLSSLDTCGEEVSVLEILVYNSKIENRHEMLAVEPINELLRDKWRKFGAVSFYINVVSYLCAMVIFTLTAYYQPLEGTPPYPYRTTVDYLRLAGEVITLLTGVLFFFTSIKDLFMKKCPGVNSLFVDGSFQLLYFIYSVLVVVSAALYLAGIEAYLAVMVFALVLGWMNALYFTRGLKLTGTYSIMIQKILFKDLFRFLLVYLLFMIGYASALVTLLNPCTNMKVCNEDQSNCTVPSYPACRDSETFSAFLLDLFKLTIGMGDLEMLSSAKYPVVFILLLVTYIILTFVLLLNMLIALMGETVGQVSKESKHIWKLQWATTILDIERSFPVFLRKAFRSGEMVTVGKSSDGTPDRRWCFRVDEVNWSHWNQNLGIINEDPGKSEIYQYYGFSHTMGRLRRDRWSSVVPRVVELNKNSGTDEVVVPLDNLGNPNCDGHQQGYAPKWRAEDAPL
T1 sequence (Q9HBA0 whole entry): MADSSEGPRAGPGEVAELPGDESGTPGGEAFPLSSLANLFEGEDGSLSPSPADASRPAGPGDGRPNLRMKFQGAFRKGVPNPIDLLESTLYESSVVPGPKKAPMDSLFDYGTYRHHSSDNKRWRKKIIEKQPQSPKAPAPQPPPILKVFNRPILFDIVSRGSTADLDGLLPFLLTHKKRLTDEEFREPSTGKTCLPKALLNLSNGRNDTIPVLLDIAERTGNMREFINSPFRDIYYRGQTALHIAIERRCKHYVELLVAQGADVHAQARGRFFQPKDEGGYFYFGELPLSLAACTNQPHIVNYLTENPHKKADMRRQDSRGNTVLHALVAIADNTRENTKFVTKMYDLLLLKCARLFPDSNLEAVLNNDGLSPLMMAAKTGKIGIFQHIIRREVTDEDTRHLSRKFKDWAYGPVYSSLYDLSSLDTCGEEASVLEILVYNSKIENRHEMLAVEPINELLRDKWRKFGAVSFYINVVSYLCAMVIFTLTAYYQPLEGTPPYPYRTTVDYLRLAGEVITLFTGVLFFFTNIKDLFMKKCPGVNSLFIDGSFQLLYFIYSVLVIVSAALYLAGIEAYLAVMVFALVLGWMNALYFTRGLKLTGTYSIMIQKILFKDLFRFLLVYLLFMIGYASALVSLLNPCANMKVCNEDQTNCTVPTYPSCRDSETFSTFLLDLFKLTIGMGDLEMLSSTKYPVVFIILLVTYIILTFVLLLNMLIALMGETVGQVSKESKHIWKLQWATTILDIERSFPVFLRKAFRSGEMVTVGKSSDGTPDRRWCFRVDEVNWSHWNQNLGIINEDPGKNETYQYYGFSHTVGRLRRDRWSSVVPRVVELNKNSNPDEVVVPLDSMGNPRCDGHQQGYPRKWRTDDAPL
T2 sequence (A0A8F4X677 1-871): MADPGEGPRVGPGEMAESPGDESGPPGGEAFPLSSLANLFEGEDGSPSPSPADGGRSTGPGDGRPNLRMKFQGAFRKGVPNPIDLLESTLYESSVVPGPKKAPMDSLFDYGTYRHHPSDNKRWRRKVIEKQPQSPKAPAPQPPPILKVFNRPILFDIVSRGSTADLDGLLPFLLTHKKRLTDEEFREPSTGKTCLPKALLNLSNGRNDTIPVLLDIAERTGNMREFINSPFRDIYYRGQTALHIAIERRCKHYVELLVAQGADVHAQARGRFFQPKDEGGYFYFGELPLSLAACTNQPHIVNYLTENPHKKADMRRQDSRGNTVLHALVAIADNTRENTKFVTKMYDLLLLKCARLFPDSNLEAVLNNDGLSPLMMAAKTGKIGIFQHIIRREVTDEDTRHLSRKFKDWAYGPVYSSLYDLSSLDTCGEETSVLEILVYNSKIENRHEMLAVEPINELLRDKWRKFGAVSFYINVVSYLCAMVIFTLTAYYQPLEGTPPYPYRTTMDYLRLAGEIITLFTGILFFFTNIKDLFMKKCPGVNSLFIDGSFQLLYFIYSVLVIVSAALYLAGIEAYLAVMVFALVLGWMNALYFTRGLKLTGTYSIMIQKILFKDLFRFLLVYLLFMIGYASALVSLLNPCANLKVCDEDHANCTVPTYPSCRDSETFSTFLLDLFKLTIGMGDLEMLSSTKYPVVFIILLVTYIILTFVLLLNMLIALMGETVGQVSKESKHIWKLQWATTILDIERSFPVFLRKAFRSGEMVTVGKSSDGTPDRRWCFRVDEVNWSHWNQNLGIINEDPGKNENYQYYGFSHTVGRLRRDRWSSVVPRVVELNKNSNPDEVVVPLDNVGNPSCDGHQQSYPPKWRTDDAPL
T3 sequence (A0A8F4X677 1-871): as above

SMILES: C=C(C)[C@]12C[C@@H](C)[C@@]34O[C@](Cc5ccccc5)(O[C@@H]1[C@@H]3C=C(COC(=O)Cc1ccc(O)c(OC)c1)C[C@]1(O)C(=O)C(C)=C[C@@H]41)O2 [RTX]
pEC50 wild type [1]: IA
pEC50 empty vector [2]: IA
pEC50 TRPVR1 [3]: 8.93 ± 0.20
pEC50 TRPVR4 [4]: IA

BAC % eff ([5]; bovine articular chondrocytes): (94%)
EC50 [5, 15]: 310 nM
IC50 ([6]; Bos taurus): 40 nM
EC50 [7]: 370 nM
EC50 [8]: 140 nM
RAC % eff [8]: 70%
EC50 [9, 16]: 250 nM
HAC % eff ([9]; N = 2): 127%
SMILES: CC(C)C[C@H](NC(=O)c1cc2ccccc2s1)C(=O)NCCCN(C)S(=O)(=O)c1ccc(Cl)cc1Cl [Formula IIIc, N-{(1S)-1-[({3-[[(2,4-dichlorophenyl)sulfonyl](methyl)amino]propyl}amino)carbonyl]-3-methylbutyl}-1-benzothiophene-2-carboxamide]

SMILES: COc1ccc(S(=O)(=O)N(Cc2cccnc2)[C@@H](C(=O)NO)C(C)C)cc1 [CGS-27023A, reference compound]
block of IL-1-induced collagen degradation [10]: completely blocked

SMILES: CC(C)C[C@H](NC(=O)c1cc2ccccc2s1)C(=O)N[C@@H]1CCCN(S(=O)(=O)c2ccc(Cl)cc2)CC1=O [Formula IIc, N-{(1S)-1-[({(4R)-1-[(4-chlorophenyl)sulfonyl]-3-oxohexahydro-1H-azepin-4-yl}amino)carbonyl]-3-methylbutyl}-1-benzothiophene-2-carboxamide]
GAG release Mean ± SEM ([11]; 0.01 μM, IL-1 100 ng/ml, 3 days): 62 ± 4.82 μg/explant
GAG release Mean ± SEM ([11]; 0.03 μM, IL-1 100 ng/ml, 3 days): 59 ± 4.62 μg/explant
GAG release Mean ± SEM ([11]; 0.10 μM, IL-1 100 ng/ml, 3 days): 43 ± 3.18 μg/explant
GAG release Mean ± SEM ([11]; 1.00 μM, IL-1 100 ng/ml, 3 days): 14 ± 1.44 μg/explant
inhibition at 0.01 µM ([11]; Bos taurus, 72 h, 0.01 μM, IL-1 100 ng/ml, 3 days): -2%
inhibition at 0.03 µM ([11]; Bos taurus, 72 h, 0.03 μM, IL-1 100 ng/ml, 3 days): 4%
inhibition at 0.1 µM ([11]; Bos taurus, 72 h, 0.10 μM, IL-1 100 ng/ml, 3 days): 38%
inhibition at 1 µM ([11]; Bos taurus, 72 h, 1.00 μM, IL-1 100 ng/ml, 3 days): 98%
inhibition of aggrecan degradation ([11]; IL-1 stimulation for 12 or 21 days): Significant inhibition

SMILES: CCCCCCCCCCCCCC(=O)O[C@@H]1[C@@H](C)[C@@]2(O)[C@@H](C=C(CO)C[C@]3(O)C(=O)C(C)=C[C@@H]23)[C@@H]2C(C)(C)[C@]12OC(C)=O [PMA, phorbol 12-myristate 13-acetate]
effect on intracellular calcium in wild type HEK293 cells [1]: without effect
pEC50 wild type [1]: IA
effect on intracellular calcium in cells transfected with empty vector [2]: without effect
pEC50 empty vector [2]: IA
activation of VR1 [3]: activated VR1
Emax at VR1 ([3]; compared to capsaicin and RTX): 0.46
pEC50 TRPVR1 [3]: 7.86 ± 0.06
Ca2+ influx ([5]; bovine chondrocytes): no change in Ca^2+ influx
Ca2+ influx ([8]; rat chondrocytes): no change in Ca^2+ influx
Ca2+ influx ([9]; human chondrocytes): no change in Ca^2+ influx
intracellular calcium in HEK293-TRPV4 channel receptor cells [4]: increased intracellular calcium
pEC50 TRPVR4 [4]: 6.64 ± 0.06

SMILES: N.N.N.N.N.N.N.N.N.N.N.N.N.N.[Cl-].[Cl-].[Cl-].[Cl-].[Cl-].[Cl-].[O-2].[O-2].[Ru+3].[Ru+3].[Ru+4] [Ruthenium Red, reference compound]
block of the response to 4α-PDD [12]: blocked
reversal of the effects of 4α-PDD on Ca2+ influx ([5]; bovine chondrocytes): reduce Ca^2+ influx down to baseline levels
reversal of the effects of 4α-PDD on Ca2+ influx ([8]; rat chondrocytes): reduce Ca^2+ influx down to baseline levels
reversal of the effects of 4α-PDD on Ca2+ influx ([9]; human chondrocytes): reduce Ca^2+ influx down to baseline levels

SMILES: CCCCCCCCCC(=O)O[C@@H]1[C@@H](C)[C@@]2(O)[C@@H](C=C(CO)C[C@@]3(O)C(=O)C(C)=C[C@@H]23)[C@@H]2C(C)(C)[C@]12OC(=O)CCCCCCCCC [Formula 4αPDD, 4α-phorbol-12,13-didecanoate]
effect on intracellular calcium in wild type HEK293 cells [1]: without effect
pEC50 wild type [1]: IA
effect on intracellular calcium in cells transfected with empty vector [2]: without effect
pEC50 empty vector [2]: IA
activation of VR1 [3]: did not activate VR1
pEC50 TRPVR1 [3]: IA
Ca2+ influx ([5]; bovine chondrocytes): stimulated Ca^2+ influx
potency and efficacy in activating TRPV4 channel receptors in cartilage explants [13]: greatly diminished
Ca2+ influx ([8]; rat chondrocytes): stimulated Ca^2+ influx
Ca2+ influx ([9]; human chondrocytes): stimulated Ca^2+ influx
intracellular calcium in HEK293-TRPV4 channel receptor cells [4]: increased intracellular calcium
pEC50 TRPVR4 [4]: 5.73 ± 0.06

Ca Influx - FLEX (bovine) % effic. ([5]; bovine chondrocytes): 119%
EC50 [5, 17]: 280 nM
IC50 ([6]; Bos taurus): 600 nM
EC50 [9, 18]: 260 nM
Ca Influx - FLEX (human) % effic. ([9]; human chondrocytes): 133%
SMILES: CC(C)C[C@H](NC(=O)c1cc2ccccc2n1C)C(=O)N[C@@H]1CCCN(S(=O)(=O)c2ccccc2C#N)CC1 [Formula Ib, N-{(1S)-1-[({(4R)-1-[(2-cyanophenyl)sulfonyl]hexahydro-1H-azepin-4-yl}amino)carbonyl]-3-methylbutyl}-methyl-1H-indole-2-carboxamide]
IC50 ([11]; Bos taurus): 200 nM
IC50 [14]: 300 nM
Hydroxyproline Mean ± SEM ([10]; 1 uM, IL-1 50 ng/ml, media from day 14-18): 6 ± 2 µg
inhibition at 1 µM ([10]; Bos taurus, 336 h, 1 uM, IL-1 50 ng/ml, media from day 14-18): 95%

pEC50 empty vector [2]: IA
Ca2+ influx ([5]; bovine chondrocytes): no change in Ca^2+ influx
Ca2+ influx ([8]; rat chondrocytes): no change in Ca^2+ influx
Ca2+ influx ([9]; human chondrocytes): no change in Ca^2+ influx
pEC50 TRPVR4 [4]: IA
SMILES: COc1cc(CNC(=O)CCCC/C=C/C(C)C)ccc1O [capsaicin, reference compound]
pEC50 wild type [1]: IA

BAC % eff ([5]; bovine articular chondrocytes): (104%)
EC50 [5, 15]: 260 nM
Ca Influx - FLEX (bovine) % effic. ([5]; bovine chondrocytes): 70%
EC50 [5, 17]: 290 nM
IC50 [6]: 350 nM
IC50 ([6]; Bos taurus): 400 nM
EC50 [7]: 700 nM
EC50 [8]: 370 nM and 700 nM
RAC % eff [8]: 99% and 104%
EC50 [9, 18]: 280 nM
EC50 [9, 16]: 240 nM and 210 nM
HAC % eff ([9]; N = 2): 124% and 130%
Ca Influx - FLEX (human) % effic. ([9]; human chondrocytes): 78%
SMILES: CC(C)C[C@H](NC(=O)c1cc2ccccc2s1)C(=O)NCCCN(C)S(=O)(=O)c1ccccc1C#N [Formula IIIb, N-{(1S)-1-[({3-[[(cyanophenyl)sulfonyl](methyl)amino]propyl}amino)carbonyl]-3-methylbutyl}-1-benzothiophene-2-carboxamide]
IC50 ([11]; Bos taurus): 400 nM
IC50 [14]: 500 nM
